Assay results from publication PMC7392643, “Antibiotic fidaxomicin is an RdRp inhibitor as a potential new therapeutic agent against Zika virus” (BMC Medicine, 2020).
“Also recorded” adds a separate entry of the source. Where two headings read alike, the source gives them in different places.

Columns and labels:
ZIKV MR766 strain = assay: In vitro antiviral assay, plaque assay, ZIKV MR766; format: cell-based; details: Zika virus, 48 h
Experimental: Various cell lines, including SNB19 (6 × 10^4/well, 10% FBS DMEM), A172 (7 × 10^4/well, 10% FBS DMEM), Vero (6 × 10^4/well 10% FBS DMEM), Huh7 (7 × 10^4/well, 10% FBS DMEM), HUVECs (7 × 10^4/well, 15% FBS M199 medium supplemented with 2 mM L-glutamine, 0.02 mg/mL endothelial cell growth supplement, and 0.05 mg/mL heparin), and A549 (6 × 10^4/well, 5% FBS DMEM), were plated in 12-well plates and allowed to attach overnight, followed by infection with ZIKV (ZG-01 strain or MR766 strain, respectively, at indicated MOI) in the presence of different concentrations of fidaxomicin, ribavirin, or vehicle control for 1 h, followed by two washes with 1 × PBS and incubated with fresh medium (without virus) consisting of corresponding concentrations of the compounds for further 48 h. The cell supernatants were collected to quantify ZIKV infection by plaque assay as previously described [47] or by RT-qPCR.

ZIKV ZG-01 strain = assay: In vitro antiviral assay, RT-qPCR, ZIKV ZG-01; format: cell-based; details: Zika virus
Experimental: The anti-ZIKV activity of fidaxomicin and ribavirin was evaluated in vitro by plaque assay. Various cell lines, including SNB19 (6 × 10^4/well, 10% FBS DMEM), A172 (7 × 10^4/well, 10% FBS DMEM), Vero (6 × 10^4/well 10% FBS DMEM), Huh7 (7 × 10^4/well, 10% FBS DMEM), HUVECs (7 × 10^4/well, 15% FBS M199 medium supplemented with 2 mM L-glutamine, 0.02 mg/mL endothelial cell growth supplement, and 0.05 mg/mL heparin), and A549 (6 × 10^4/well, 5% FBS DMEM), were plated in 12-well plates and allowed to attach overnight, followed by infection with ZIKV (ZG-01 strain or MR766 strain, respectively, at indicated MOI) in the presence of different concentrations of fidaxomicin, ribavirin, or vehicle control for 1 h, followed by two washes with 1 × PBS and incubated with fresh medium (without virus) consisting of corresponding concentrations of the compounds for further 48 h. The cell supernatants were collected to quantify ZIKV infection by plaque assay as previously described or by RT-qPCR. […] The anti-DENV activity of fidaxomicin was evaluated in vitro by RT-qPCR.
RNA from cell supernatants or from mouse tissues (brain and testis) was prepared with RaPure Viral RNA/DNA Kit (Magen, Guangzhou, China) according to the manufacturer’s instructions. The first-strand cDNA was synthesized using random hexamer primers with the Revert Aid Reverse Transcription Kit (Thermo Fisher Scientific, Rockford, IL, USA), and real-time PCR was carried out by using LightCycler® 480 Probes Master (2× reaction mix buffer including DNA polymerase) (no. 04887301001, Roche, Basel, Switzerland). Virus concentration was determined by interpolation onto an internal standard curve made up of a 7-point dilution series of in vitro transcribed RNA and tissue weight to quantify ZIKV RNA as copies/gram tissue. Primer sets used for real-time PCR are shown in Additional file 1: Table S1. Reverse transcription and real-time PCR were performed for at least three times.

ZIKV = assay: Oral administration test in ZIKV-infected mice; format: in vivo; details: 225 mg/kg, vs vehicle
Experimental: Fig. S4. Oral administration test for the antiviral efficacy of fidaxomicin in vivo. a Schematic illustration of the animal experimental design for the oral administration test (n=10 animals per group). b Kaplan–Meier survival of ZIKV-infected mice treated with fidaxomicin at the dosage of 225mg/kg. c Body weight changes were recorded daily for ZIKV-infected mice treated with fidaxomicin at the dosage of 225mg/kg or with control delivery vehicle. d Tissue viral loads in the brains of ZIKV-infected mice were determined by RT-qPCR (P value, compared to vehicle control).

ZIKV (ZG-01) = assay: Western blotting of ZIKV proteins in infected SNB19 cells; format: cell-based, Zika virus
Experimental: Tissue specimens obtained from mice or cells were lysed with RIPA lysis buffer (Millipore, Bedford, MA) containing a cocktail of protease and phosphatase inhibitors (Sigma-Aldrich, St. Louis, MO, USA). Protein concentrations were measured with a bicinchoninic acid (BCA) protein assay (Thermo Fisher Scientific, Rockford, IL, USA). Protein samples were separated by sodium dodecyl sulfate-polyacrylamide gel electrophoresis (SDS-PAGE) and transferred onto a polyvinylidene difluoride (PVDF) membrane. Non-specific antibody binding sites were blocked with 5% non-fat milk in Tris-buffered saline (TBS) (20 mM Tris-HCl [pH 7.6], 135 mM NaCl, and 0.1% Tween 20) for 1 h at room temperature and then incubated with the following primary antibodies: anti-STAT2 (1:1000, sc166201, Santa Cruz Biotechnology, Santa Cruz, CA, USA), anti-ZIKV E (1:1000, BF-1176-56, BioFront Technologies, Tallahassee, USA), anti-ZIKV NS5 (1:1000, BF-6A1-100UG, BioFront), and anti-ZIKV NS3 (1:1000, GTX133309, GeneTex, Alton Pkwy, Irvine, CA, USA). Anti-GAPDH (1:2000, ab181602, Abcam, Cambridge, MA, USA) or mouse anti-GAPDH (1:1000, ab9484, Abcam) was used as a loading control. […] The relative protein level was quantified by densitometry and normalized to GAPDH or mGAPDH level using Image J software (NIH, Bethesda, MD, USA).

in vitro = details: African green monkey
Experimental: Cell viability was detected by the 3-(4,5-dimethyl-2-thiazolyl)-2,5-diphenyl-2H-tetrazolium bromide (MTT) assay according to a previously described method [48]. Briefly, cells were seeded in 96-well plates at a density of 1 × 10^4 cells per well and cultured at 37 °C for 24 h, followed by exposure to the serially diluted fidaxomicin or ribavirin separately for 48 h. Cell survival rate was determined by MTT reduction assay according to the manufacturer’s protocol (Invitrogen). The 50% cytotoxic concentration (CC50) was defined as the compound concentration required to inhibit the cell growth by 50% compared with the control assay. The assay was performed in triplicates in three independent experiments.

CCc1c(Cl)c(O)c(Cl)c(O)c1C(=O)O[C@H]1[C@H](O)[C@H](OC)[C@H](OC/C2=C\C=C\C[C@H](O)/C(C)=C/[C@H](CC)[C@@H](O[C@@H]3OC(C)(C)[C@@H](OC(=O)C(C)C)[C@H](O)[C@@H]3O)/C(C)=C/C(C)=C/C[C@@H]([C@@H](C)O)OC2=O)O[C@@H]1C [Fidaxomicin]
EC50 (ZIKV MR766 strain; A549 cells): 13 ± 4.4 µM
EC90 (ZIKV MR766 strain; A549 cells): 42.2 ± 4.6 µM
EC50 (ZIKV MR766 strain; Huh-7, Huh7 cells): 7.3 ± 2.5 µM
EC90 (ZIKV MR766 strain; Huh-7, Huh7 cells): 16.2 ± 3.9 µM
EC50 (ZIKV MR766 strain; SNB-19, SNB19 cells): 6.8 ± 1.2 µM
EC90 (ZIKV MR766 strain; SNB-19, SNB19 cells): 9.5 ± 1.5 µM
EC50 (ZIKV MR766 strain; Vero cells): 12.4 ± 3 µM
EC90 (ZIKV MR766 strain; Vero cells): 45.2 ± 6.2 µM
EC50 (ZIKV ZG-01 strain; A 172, A172 cells, viral RNA copy number by RT-qPCR): 8.8 ± 1.9 µM
EC90 (ZIKV ZG-01 strain; A 172, A172 cells, viral RNA copy number by RT-qPCR, read-out: EC90): 11.8 ± 1.4 µM
EC90 (ZIKV ZG-01 strain; HUVEC): 23.2 ± 3 µM
EC50 (ZIKV ZG-01 strain; HUVEC, HUVECs, viral RNA copy number by RT-qPCR): 14.5 ± 1.2 µM
EC50 (ZIKV ZG-01 strain; Huh-7, Huh7 cells, viral RNA copy number by RT-qPCR): 11.1 ± 1.6 µM
EC90 (ZIKV ZG-01 strain; Huh-7, Huh7 cells, viral RNA copy number by RT-qPCR, read-out: EC90): 21.6 ± 1 µM
EC50 (ZIKV ZG-01 strain; SNB-19, SNB19 cells, viral RNA copy number by RT-qPCR): 9.2 ± 2.4 µM
EC90 (ZIKV ZG-01 strain; SNB-19, SNB19 cells, viral RNA copy number by RT-qPCR, read-out: EC90): 17.3 ± 4.8 µM
EC50 (ZIKV ZG-01 strain; A549 cells, viral RNA copy number by RT-qPCR): 13 ± 3.3 µM
EC90 (ZIKV ZG-01 strain; A549 cells, viral RNA copy number by RT-qPCR, read-out: EC90): 17.8 ± 5.3 µM
EC50 (ZIKV ZG-01 strain; Vero cells, viral RNA copy number by RT-qPCR): 12.5 ± 2.2 µM
EC90 (ZIKV ZG-01 strain; Vero cells, viral RNA copy number by RT-qPCR, read-out: EC90): 52.1 ± 5.5 µM
outcome of ZIKV-infected mice after oral administration (ZIKV): did not improve the outcome; also recorded: only weakly antagonizes
amount of ZIKV NS3 protein (ZIKV (ZG-01); SNB19 cell lysates, time-dependent): decreased
ZIKV NS5 and E proteins (ZIKV (ZG-01); SNB19 cells, MOI 1.0 and 2.0): decreased
CC50 at 48 h (in vitro): 126 ± 10.3 µM
